Assay results: patent publication US8633251B2, “Derivatives of aminoalkanols, method of obtaining of aminoalkanols and their use” (Uniwersytet Jagiellonski, priority 2008, dated 2014)

Key:
Format in all cases: in vivo
[1] = system: maximal electroshock seizures; experiment: Maximum Electroshock Seizure (MES) test, mice; details: mice; for MES, No. of protected animals/No. of used animals: time 0.5 h
Procedure, shortened: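 Mice received compound in methylcellulose i.p. or p.o. at 30, 100 and 300 mg/kg, with some tests at 10 and 3 mg/kg. At 0.5 or 4 h, after tetracaine eye-drops, current was delivered through corneal electrodes (60 Hz, 0.2 s, 50 mA). Groups were one mouse at 30 and 300 mg/kg and three at 100 mg/kg.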

[2] = system: maximal electroshock seizures; experiment: Maximum Electroshock Seizure (MES) test, rats; details: 0.25 h
Description: In order to define anticonvulsant activity, screening tests were performed, using animal models of seizures. […] The tests were based on administration of a compound to an animal and after certain time inducing state similar to epilepsy attack in human. Each substance (after dissolving in methylcellulose) was normally tested in doses 30, 100, and 300 mg/kg body weight (b.w.) (mice) or in 30 and 50 mg/kg b.w. (rats) in two possible routes of administration: intraperitoneal (i.p.) or oral (p.o.). […] […] (mice) the tests were also performed in doses 10 and 3 mg/kg b.w.
Maximum Electroshock Seizure (MES) test is an electric test, verifying activity towards generalized tonic-clonic seizures (grand mal epilepsy). […] Its procedure consists in administration to an animal a mentioned dose, […] (after anesthetic eye-drops: 0.5% tetracaine hydrochloride in 0.9% NaCl) and turning on electric current (60 Hz, 0.2 s, 50 mA (mice) or 150 mA (rats)). […]

neurotoxicity (rotarod) = experiment: Neurotoxicity test (TOX), rotarod, mice; details: mice, time 0.5 h
[3] = system: seizures induced by sound; experiment: Sound-induced seizures, Frings mice; details: mice
Description: (§1) For some compounds, a test for proconvulsant activity was performed (TTE test), as well as a test on activity in focal seizures (related with limbic system, 6 Hz test, hippocampal kindling). […] A test on inhibiting seizures induced by sound (Frings mice) was performed for compounds 12 and 26-28. Electrophysiology tests also have been performed, for seizures induced by bicuculline, picrotoxin, and NMDA. Prevention of (pilocarpine induced) status epilepticus has been noticed.

[4] = system: seizures induced by bicuculline; experiment: Bicuculline (BIC) induced seizures
Description: as §1

[5] = system: seizures induced by picrotoxin; experiment: Picrotoxin (PIC) induced seizures
Description: as §1

[6] = system: formalin-induced pain (acute/neuropathic and inflammatory phase); experiment: Formalin test, mice; details: 21 mg/kg b.w.
Description: The test was performed with use of formaldehyde as a substance causing pain (neuropathic and inflammatory afterwards) in mice, which were injected formalin into a hind limb.
During the first 10 min. after administration the mouse is licking the hind limb (acute phase), afterwards there is a short break in behavior change, and then the mouse licks its limb again for another 20-30 min. (inflammatory phase) (FIG. 3 for 12 and FIG. 4 for 26). The acute phase represents direct affection on the peripheral nerve and the inflammatory phase is related with secretion of inflammation mediators from the damaged tissue and nerves. The described model tests effectiveness of a substance to inhibit acute and chronic excessive neuronal discharges in response to peripheral nerves activation.

[7] = system: LTG-resistant amygdala seizures; experiment: Lamotrigine-resistant amygdala kindling, rats; details: t=0.25 h, i.p.

SMILES: CCC(CO)NCCOc1c(C)cccc1Cl (stereo not drawn) [Compound 26, R,S-2N-[(2-chlor-6-methylphenoxy)ethyl]amino-1-butanol]
- MES, No. of protected animals/No. of used animals ([1]; dose 10 mg/kg b.w.): 2/4
- MES, No. of protected animals/No. of used animals ([1]; dose 30 mg/kg b.w.): 1/1
- MES, No. of protected animals/No. of used animals ([1]; dose 100 mg/kg b.w.): 1/1
- ED50 (MES, mice, i.p., 0.25 h) ([1]; i.p., 0.25 h): 21.44 mg/kg b.w.
- ED50 (MES, rats, i.p., 0.25 h) ([2]; i.p.): 7.3 mg/kg b.w.
- ED50 (MES, rats, p.o., 0.25 h) ([2]; p.o.): 67.69 mg/kg b.w.
- TOX, No. of animals exhibiting motor impairment/no. of used animals (neurotoxicity (rotarod); dose 100 mg/kg b.w.): 8/8
- TOX, No. of animals exhibiting motor impairment/no. of used animals (neurotoxicity (rotarod); dose 300 mg/kg b.w.): 4/4
- ED50 (sound induced seizures, mice, 0.25 h) [3]: 6.05 mg/kg b.w.
- ED50 (BIC, 0.25 h) [4]: > 70 mg/kg b.w.
- ED50 (PIC, 0.25 h) [5]: > 70 mg/kg b.w.
- neuropathic pain inhibition (formalin test) [6]: 36%
- acute phase of the formalin test ([6]; mice, i.p., first ca. 10 min. after formalin, p<0.01): 64 % of control
- inflammatory phase of the formalin test ([6]; mice, i.p., not statistically significant): 72 % of control
- effective dose (LTG-resistant amygdala seizures) [7]: 15 mg/kg b.w.
